The target of the assay is p53 core domain (WT p53) (Homo sapiens, UniProt P04637). Description: intrinsic fluorescence quenching. The class given is binding.
p53 core domain (WT p53), sequence (P04637 94-312): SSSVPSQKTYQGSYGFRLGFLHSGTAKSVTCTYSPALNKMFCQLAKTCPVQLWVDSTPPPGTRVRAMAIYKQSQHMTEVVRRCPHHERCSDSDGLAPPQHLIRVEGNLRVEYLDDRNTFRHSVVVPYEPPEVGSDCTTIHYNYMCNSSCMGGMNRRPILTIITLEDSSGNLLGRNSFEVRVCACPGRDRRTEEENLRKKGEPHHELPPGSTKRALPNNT

The Kd is the equilibrium constant for the complex coming apart. `CC1(C)CC(NCC(=O)N2C/C(=C\c3ccc(C#N)cc3)C(=O)/C(=C/c3ccc(C#N)cc3)C2)C(C)(C)N1[O]` (stereo not shown) [AKT-100] showed a Kd of 9.8 ± 0.1 µM.
